Assay results: patent US10377711B2, “Cannabinoid type 1 receptor modulators” (priority 2014, dated 2019)

Experiments:
[1] = molecular target: T1, CB1 receptor (HEK293 CB1 β-arrestin cells) (Homo sapiens, UniProt P21554); assay: PathHunter β-Arrestin assay, enhancement of anandamide stimulation; type: cell-based; conditions: maximum % increase in stimulation caused by anandamide; for Potency % Enhancement 1000 nM: 1000 nM test compound; for Potency % Enhancement 300 nM: 300 nM test compound; for Potency % Enhancement 100 nM: 100 nM test compound
T1 construct: host or cells: HEK293 CB1 β-arrestin cells (PathHunter)
Text: PathHunter™ β-Arrestin Assays
β-Arrestins are multifunctional intracellular proteins that interact with a structurally diverse group of cell surface receptors including GPCRs, to regulate cellular functions (see, e.g., Violin and Lefkowitz, 2007).
PathHunter™ enzyme fragment complementation is the most important method to measure β-arrestin recruitment. PathHunter™ β-Arrestin assays developed by DiscoveRX are revolutionary high-throughput screening assays for monitoring GPCR activation following ligand stimulation, without an imaging instrument, fluorescent protein tag, or radioactivity.
Instead, the assays detect GPCR activation through binding of β-arrestin to the expressed GPCR of interest, and measure the interaction of the two proteins using enzyme fragment complementation (EFC). The EFC approach offers a range of benefits for screening; including signal amplification and robust performance.
The larger portion of β-gal, termed EA for enzyme acceptor, is fused to the C-terminus of β-arrestin. The smaller, complementing fragment of β-gal, the ProLink™ tag, is expressed as a fusion protein with the GPCR of interest at the C-terminus. Upon activation, the GPCR is bound by β-arrestin. The interaction of β-arrestin and the GPCR forces the interaction of ProLink and EA, thus allowing complementation of the two fragments of β-gal and the formation of a functional enzyme capable of hydrolyzing substrate and generating a […] signal.
Using the PathHunter™ CB1 kit from DiscoveRX, a cannabinoid CB1 receptor agonist is added and activates the receptor, EA, which is fused to the C-terminus of β-arrestin, and then interacts with the ProLink™ tag which is fused to the CB1 receptor. This will result in the […] signal that is recorded by a luminescence plate reader. The […] signal is directly related to the activation of the receptor, therefore a higher concentration of agonist will yield a larger […] signal. The cannabinoid agonist is added in increasing concentrations to obtain an agonist dose response curve. With pre-incubation of a potential allosteric modulator, either an enhancement of agonist signalling with an allosteric enhancer or a decrease in the maximal response of the agonist with an allosteric inhibitor is expected.
All raw data are obtained as luminescence (relative light units), and are normalised and presented as a percentage of the maximal response for the endogenous cannabinoid CB1 receptor agonist anandamide (N-arachidonoylethanolamine).
The PathHunter™ β-Arrestin assay (from DiscoveRX, Fremont, USA) was performed as follows. HEK293 CB1 β-arrestin cells were plated 48 hours before use and incubated at 37° C., 5% CO2 in a humidified incubator. Test compounds were dissolved in dimethylsulfoxide (DMSO) and diluted in optimized cell culture media (OCC, as supplied by DiscoveRX) media to the required concentrations. 5 μL of test compound or vehicle solution was added to each well and incubated for 60 minutes at 37° C., 5% CO2 in a humidified incubator. 5 μL of increasing concentrations of anandamide was added to each well followed by a 90 minute incubation at 37° C., 5% CO2 in a humidified incubator. 55 μL of detection reagent (as supplied by DiscoveRX) was then added, followed by a further 90 minute incubation at room temperature in the dark. Chemiluminescence, reported in relative light units (RLU—a dimensionless value, standardised as a % of maximum stimulation with anandamide), was measured on a standard luminescence plate reader.
Data were plotted as % of maximal stimulation (Emax) caused by agonist versus the logarithm of concentration of agonist, in the presence or absence of a fixed concentration of test compound (modulator) or vehicle. For example, stimulation in the presence of agonist alone will give a value for stimulation expressed in RLU, which can be expressed as a range from 0% (at lowest agonist concentration, e.g., 1 nM) to 100% (at the highest agonist concentration, e.g., 10 μM). […]

in vitro = conditions: both, human, microsomes, pH 7.4
Experimental: Human and Rat Liver Microsomal Stability Assay
The metabolic stability of the compounds of the Formula (I) was measured by determination of the rate of compound disappearance when incubated in the presence of both human and rat liver microsomes. Liver microsomes are prepared from the endoplasmic reticulum of hepatocytes and are the primary source of the most important enzymes (cytochrome P450) involved in drug metabolism. Study of drug stability in the presence of liver microsomes is accepted as a valuable model permitting rapid prediction of in vivo drug stability.
Human and rat liver microsomes were obtained from a commercial source. Test compounds (3 μM) were incubated with pooled liver microsomes (male and female). Samples were incubated for a 45 minute period and removed at 5 time points and test compounds were analysed by LC-MS/MS.
The final incubation volume was 25 μL. A control incubation was included for each compound tested, where 0.1 M phosphate buffer pH 7.4 was added instead of NADPH. The control compounds testosterone and 7-hydroxycoumarin were included in each experiment and all incubations were performed singularly for each compound.
Each compound was incubated for 0, 5, 15, 30, and 45 minutes. The control (minus NADPH) was incubated for 45 minutes only. The reactions were stopped by the addition of 50 μL methanol containing internal standard at the appropriate time points. The incubation plates were centrifuged at 2500 rpm for 20 minutes at 4° C. to precipitate the protein.
Following protein precipitation, the sample supernatants were combined in cassettes of up to 4 compounds and analysed using standard LC-MS/MS conditions.
From a plot of the natural logarithm of the peak area ratio (i.e., the ratio of compound peak area:internal standard peak area) against time, the gradient of the line was determined. Subsequently, half-life and intrinsic clearance were calculated using the equations below: Eliminated Rate Constant (k)=(−Gradient).

CB1 receptor [2] = molecular target: T2, CB1 receptor (Mus musculus, UniProt P47746); conditions: equilibrium binding assay; cited from earlier work
CB1 receptor [3] = molecular target: T2, CB1 receptor; parameters: from the CB1 receptor in mouse brain membranes; host or cells: mouse brain membranes; conditions: mouse brain membranes; cited from earlier work

T2 sequence (P47746 whole entry): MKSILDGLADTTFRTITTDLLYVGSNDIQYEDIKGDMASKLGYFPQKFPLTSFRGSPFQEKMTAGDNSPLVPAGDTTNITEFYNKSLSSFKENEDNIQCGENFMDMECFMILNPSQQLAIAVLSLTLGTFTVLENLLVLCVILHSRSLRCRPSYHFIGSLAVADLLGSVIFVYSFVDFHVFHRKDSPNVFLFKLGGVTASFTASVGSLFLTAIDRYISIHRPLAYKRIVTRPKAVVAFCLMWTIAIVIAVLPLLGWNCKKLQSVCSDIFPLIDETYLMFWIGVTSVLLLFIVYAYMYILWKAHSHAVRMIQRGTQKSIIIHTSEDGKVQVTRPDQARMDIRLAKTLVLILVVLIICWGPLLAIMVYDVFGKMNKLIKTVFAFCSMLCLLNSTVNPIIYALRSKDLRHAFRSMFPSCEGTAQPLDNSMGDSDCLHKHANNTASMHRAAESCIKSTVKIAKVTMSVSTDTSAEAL
T1 sequence (P21554 whole entry): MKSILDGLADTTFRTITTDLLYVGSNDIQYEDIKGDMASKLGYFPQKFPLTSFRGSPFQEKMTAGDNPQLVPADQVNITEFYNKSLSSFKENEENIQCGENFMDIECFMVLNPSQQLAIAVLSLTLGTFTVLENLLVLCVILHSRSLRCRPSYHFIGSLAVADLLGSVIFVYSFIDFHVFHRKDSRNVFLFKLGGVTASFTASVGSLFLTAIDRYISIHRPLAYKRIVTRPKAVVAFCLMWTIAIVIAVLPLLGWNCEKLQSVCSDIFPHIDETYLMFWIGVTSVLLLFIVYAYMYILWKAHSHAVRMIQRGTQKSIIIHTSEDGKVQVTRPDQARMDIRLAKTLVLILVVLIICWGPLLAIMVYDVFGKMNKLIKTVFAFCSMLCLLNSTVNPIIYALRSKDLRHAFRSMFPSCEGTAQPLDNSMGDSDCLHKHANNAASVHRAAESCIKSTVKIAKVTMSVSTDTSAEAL

Structure (SMILES) | Potency % Enhancement 1000 nM [1] | further results
Cc1ccc2c(C(C[N+](=O)[O-])c3ccccc3)c(-c3ccccc3)[nH]c2c1 (stereo not shown) [ABD999] | 76.8% | half-life at 3 μM (in vitro): 47.7 min; microsomal CLint at 3 μM (in vitro): 29.1 µL/min/mg
O=C(O)CC(c1ccccc1)c1c(-c2ccccc2)[nH]c2ccc(Cl)cc12 (stereo not shown) [ABD1003] | 0% | –
CS(=O)(=O)NCC(c1ccccc1)c1c(-c2ccccc2)[nH]c2ccccc12 (stereo not shown) [ABD1009] | 0% | –
NCC(c1ccccc1)c1c(-c2ccccc2)[nH]c2ccccc12 (stereo not shown) [ABD1009a] | 0% | –
NC(=O)NCC(c1ccccc1)c1c(-c2ccccc2)[nH]c2ccccc12 (stereo not shown) [ABD1011] | 0% | –
c1ccc(-c2[nH]c3ccccc3c2-n2nnnc2-c2ccccc2)cc1 [ABD1077] | 0% | –
c1ccc(-c2[nH]c3ccccc3c2-c2nnnn2-c2ccccc2)cc1 [ABD1078] | 0% | –
CS(=O)(=O)NC(c1ccccc1)c1c(-c2ccccc2)[nH]c2ccccc12 (stereo not shown) [ABD1097] | 0% | –
O=S(=O)(NC(c1ccccc1)c1c(-c2ccccc2)[nH]c2ccccc12)c1ccccc1 (stereo not shown) [ABD1098] | 0% | –
N#CC(C#N)C(c1ccccc1)c1c(-c2ccccc2)[nH]c2ccccc12 (stereo not shown) [ABD1100, 2-(Phenyl(2-phenyl-1H-indol-3-yl)methyl)malononitrile] | 19.6% | Potency % Enhancement 300 nM [1]: 0%
O=C(O)CC(c1ccccc1)c1c(-c2ccccc2)[nH]c2ccccc12 (stereo not shown) [ABD1101a] | 0% | –
N#CCC(c1ccccc1)c1c(-c2ccccc2)[nH]c2ccccc12 (stereo not shown) [ABD1102, 3-Phenyl-3-(2-phenyl-1H-indol-3-yl)propanenitrile] | 21.9% | Potency % Enhancement 300 nM [1]: 0%
NC(=O)CC(c1ccccc1)c1c(-c2ccccc2)[nH]c2ccccc12 (stereo not shown) [ABD1105] | 0% | –
CNC(=O)CC(c1ccccc1)c1c(-c2ccccc2)[nH]c2ccccc12 (stereo not shown) [ABD1106] | 0% | –
c1ccc(-c2[nH]c3ccccc3c2C(Cn2ccnn2)c2ccccc2)cc1 (stereo not shown) [ABD1117] | 0% | –
NNC(=O)CC(c1ccccc1)c1c(-c2ccccc2)[nH]c2ccccc12 (stereo not shown) [ABD1131] | 0% | –
Cc1ccc2c(C(CC#N)c3ccccc3)c(-c3ccccc3)[nH]c2c1 (stereo not shown) [ABD1132, 3-(6-Methyl-2-phenyl-1H-indol-3-yl)-3-phenylpropanenitrile] | 80.6% | Potency % Enhancement 300 nM [1]: 21.6%
Cc1ccc2c(C(c3ccccc3)C(C#N)C#N)c(-c3ccccc3)[nH]c2c1 (stereo not shown) [ABD1133, 2-((6-Methyl-2-phenyl-1H-indol-3-yl)(phenyl)methyl)malononitrile] | 40.4% | Potency % Enhancement 300 nM [1]: 68.7%
FC(F)(F)CC(c1ccccc1)c1c(-c2ccccc2)[nH]c2ccccc12 (stereo not shown) [ABD1137, 2-Phenyl-3-(3,3,3-trifluoro-1-phenylpropyl)-1H-indole] | 20.7% | Potency % Enhancement 300 nM [1]: 0%
O=C(C(c1ccccc1)c1c(-c2ccccc2)[nH]c2ccccc12)C(F)(F)F (stereo not shown) [ABD1139, 1,1,1-Trifluoro-3-phenyl-3-(2-phenyl-1H-indol-3-yl)propan-2-one] | 18.6% | Potency % Enhancement 300 nM [1]: 0%
Cc1ccc2c(C(CC(F)(F)F)c3ccccc3)c(-c3ccccc3)[nH]c2c1 (stereo not shown) [ABD1145, 6-Methyl-2-phenyl-3-(3,3,3-trifluoro-1-phenylpropyl)-1H-indole] | 61.9% | Potency % Enhancement 100 nM [1]: 45.5%
Cc1ccc2c(C(C(=O)C(F)(F)F)c3ccccc3)c(-c3ccccc3)[nH]c2c1 (stereo not shown) [ABD1146, 1,1,1-Trifluoro-3-(6-methyl-2-phenyl-1H-indol-3-yl)-3-phenylpropan-2-one] | 81.0% | Potency % Enhancement 100 nM [1]: 34.0%
Cc1ccc2c(C(c3cccs3)C(C#N)C#N)c(-c3ccccc3)[nH]c2c1 (stereo not shown) [ABD1155, 2-((6-Methyl-2-phenyl-1H-indol-3-yl)(thiophen-2-yl)methyl)malononitrile] | 67.4% | –
Cc1ccc2c(C(CC(F)(F)F)c3cccs3)c(-c3ccccc3)[nH]c2c1 (stereo not shown) [ABD1187, 6-Methyl-2-phenyl-3-(3,3,3-trifluoro-1-(thiophen-2-yl)propyl)-1H-indole] | – | microsomal CLint at 3 μM (in vitro): 5 µL/min/mg
CCc1c(C(=O)NCCc2ccc(N3CCCCC3)cc2)[nH]c2ccc(Cl)cc12 [ORG27569] | – | binding of CP55940 (CB1 receptor [2]): increase; binding of radiolabelled inverse agonist SR141716A (CB1 receptor [2]): decrease; dissociation of radiolabelled CB1 receptor agonist CP55940 from the CB1 receptor (CB1 receptor [3]): slowing of the dissociation
CCc1c(C(=O)NCCc2ccc(N(C)C)cc2)[nH]c2ccc(F)cc12 [ORG27759] | – | binding of CP55940 (CB1 receptor [2]): increase; binding of radiolabelled inverse agonist SR141716A (CB1 receptor [2]): decrease; dissociation of radiolabelled CB1 receptor agonist CP55940 from the CB1 receptor (CB1 receptor [3]): slowing of the dissociation
CCc1c(C(=O)NC2CCN(Cc3ccccc3)C2)[nH]c2ccc(Cl)cc12 (stereo not shown) [ORG29647] | – | binding of CP55940 (CB1 receptor [2]): increase; binding of radiolabelled inverse agonist SR141716A (CB1 receptor [2]): decrease; dissociation of radiolabelled CB1 receptor agonist CP55940 from the CB1 receptor (CB1 receptor [3]): slowing of the dissociation
